Results: ChEMBL document CHEMBL1201862, “PubChem BioAssay data set” (2004)
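Assay format: 96-well plates, 48-hour exposure. GI50 = concentration required for 50% inhibition of growth.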 Activity calls are given as the source filed them. Cut-off read from the data, not from the text of the source: active = GI50 up to about 1.1 µM and inactive = higher.

What was measured:
Assay in all cases: DTP human tumour cell line panel, 48 h
786-0 = tested on: 786-0
ACHN = tested on: ACHN
COLO 205 = tested on: COLO 205
HCT-116 = tested on: HCT-116
HL-60 = tested on: HL-60
HOP-92 = tested on: HOP-92
IGROV-1 = tested on: IGROV-1
M14 = tested on: M14
MDA-N = tested on: MDA-N
RXF 393 = tested on: RXF 393
SF-295 = tested on: SF-295
SK-MEL-2 = tested on: SK-MEL-2
SK-OV-3 = tested on: SK-OV-3
TK-10 = tested on: TK-10
U-251 = tested on: U-251
UACC-62 = tested on: UACC-62
DU-145 = tested on: DU-145
OVCAR-5 = tested on: OVCAR-5
OVCAR-8 = tested on: OVCAR-8
UO-31 = tested on: UO-31

Row | Structure (SMILES) | GI50 (786-0) | GI50 (ACHN) | GI50 (COLO 205) | GI50 (HCT-116) | GI50 (HL-60) | GI50 (HOP-92) | GI50 (IGROV-1) | GI50 (M14) | GI50 (MDA-N) | GI50 (RXF 393) | GI50 (SF-295) | GI50 (SK-MEL-2) | GI50 (SK-OV-3) | GI50 (TK-10) | GI50 (U-251) | GI50 (UACC-62) | GI50 (DU-145) | GI50 (OVCAR-5) | GI50 (OVCAR-8) | GI50 (UO-31)
1 | O=c1[nH]nc(-c2ccccc2)c2[nH]c3c4ccccc4ccc3c12 | 2.1 µM (inactive) | 1.69 µM (inactive) | 0.74 µM (active) | 0.942 µM (active) | 0.548 µM (active) | 20.3 µM (inactive) | 4.24 µM (inactive) | 2.66 µM (inactive) | 0.199 µM (active) | 1.58 µM (inactive) | 0.461 µM (active) | 7.62 µM (inactive) | 2.61 µM (inactive) | 2.17 µM (inactive) | 0.885 µM (active) | 1.2 µM (inactive) |  |  |  | 
2 | COC1OC(C)/C(=N/O)C2OC(C)(C)OC12 (stereo not given) | > 100 µM (inactive) | > 100 µM (inactive) | > 100 µM (inactive) | > 100 µM (inactive) | > 100 µM (inactive) | > 100 µM (inactive) | > 100 µM (inactive) | > 100 µM (inactive) |  | > 100 µM (inactive) | > 100 µM (inactive) |  | > 100 µM (inactive) | > 100 µM (inactive) | > 100 µM (inactive) | > 100 µM (inactive) | > 100 µM (inactive) | > 100 µM (inactive) | > 100 µM (inactive) | > 100 µM (inactive)
3 | CN1C2CCC1CC(=CCOC(c1ccc(F)cc1)c1ccc(F)cc1)C2 | 14 µM (inactive) | 17.4 µM (inactive) | 11 µM (inactive) | 11.8 µM (inactive) | 13.6 µM (inactive) |  | 15.7 µM (inactive) | 16.4 µM (inactive) |  | 14.5 µM (inactive) | 16.9 µM (inactive) | 19.1 µM (inactive) | 17 µM (inactive) | 14.9 µM (inactive) | 17.2 µM (inactive) | 15.1 µM (inactive) | 16.9 µM (inactive) | 17.4 µM (inactive) | 17.1 µM (inactive) | 9.91 µM (inactive)
4 | Cn1c(NC(=O)NC23CC4CC(CC(C4)C2)C3)nc2ccccc21 | 17.1 µM (inactive) | 27.5 µM (inactive) | > 100 µM (inactive) | 15.3 µM (inactive) | > 100 µM (inactive) | 25.5 µM (inactive) | > 100 µM (inactive) | 47.8 µM (inactive) |  | 15.7 µM (inactive) | 12.6 µM (inactive) | 71.3 µM (inactive) | 17.4 µM (inactive) | 39.5 µM (inactive) | 48.8 µM (inactive) | 40.1 µM (inactive) |  | > 100 µM (inactive) | > 100 µM (inactive) | > 100 µM (inactive)
